Measured values taken from PubChem BioAssay AID463229 (Broad Institute, 2010).

What follows are compounds tested on INS-1E rat beta cells, no cytokines, CellTiter-Glo ATP, 48 h (assay: ATP level change in INS-1E without cytokines, dose response, counter-screen for beta-cell apoptosis protection project, INS-1E rat cells, ATP luminescence, cherry pick (AID 463229)).
In the case of `O=C(Nc1cccnc1)C1(F)C(F)(F)C(F)(F)C(F)(F)C(F)(F)C1(F)F`, the AC50 is reported as 3.56 µM. For `CCN1CCN(Cc2ccc(NC(=O)c3ccc(C)c(NC(=O)c4c[nH]c5cc(C(F)(F)F)ccc5c4=O)c3)cc2C(F)(F)F)CC1`, the AC50 was 7.07 µM. For `Cc1[nH]c(N=Nc2ccccc2)nc1N=Nc1ccccc1`, the AC50 was 8.16 µM. `CC(=O)NC(c1cc(Cl)c2cccnc2c1O)C(C)C` (stereo not drawn) gave an AC50 of 8.18 µM. For `Cc1ccc(NC2=C(N3CCCCC3)C(=O)c3ccccc3C2=O)cc1`, the AC50 was 1.9 µM. With `Cc1ccc(-c2sc(-c3ccccc3)nc2CC(=O)Nc2ccccc2F)cc1` the AC50 was 2.06 µM. `Cc1nc2ccccc2n1/N=C/c1ccc([N+](=O)[O-])s1` was tested, and the AC50 was 1.92 µM. With `CCOC(=O)N1CCN(C(=O)CSCC(=O)Nc2nc(-c3ccc(-c4ccccc4)cc3)cs2)CC1` the AC50 was 4.49 µM. With `O=C(Cc1ccc(Cl)cc1)c1c[nH]c(C(=O)NCc2cccnc2)c1` the AC50 was 0.665 µM. In the case of `O=C(Nc1nc2ccc([N+](=O)[O-])cc2s1)c1ccc(S(=O)(=O)N2CCCc3ccccc32)cc1`, the AC50 is reported as 2.63 µM. `COc1ccc(Nc2nc(N3CCCC3)c3ccccc3n2)cc1` showed an AC50 of 9.85 µM. In the case of `CCCCCn1c(=O)c(C(=O)Nc2ncccc2C)c(O)c2ccccc21`, the AC50 is reported as 6.75 µM. In the case of `O=[N+]([O-])c1cccnc1N/N=C/c1ccccc1O`, the AC50 is reported as 5.45 µM. For `Oc1ccccc1C(Nc1nccs1)c1ccc2cccnc2c1O` (stereo not drawn), the AC50 was 4.91 µM. For `Cc1cc(C)n(-c2nc3ccccc3c(=O)n2OCC#N)n1`, the AC50 was 12.4 µM. In the case of `COc1ccccc1N1CCN(Cc2cc(Br)c(O)c3ncccc23)CC1`, the AC50 is reported as 5.72 µM. With `Cc1nc2ccccc2n1Cc1ccc(Br)cc1` the AC50 was 5.63 µM. Compound `O=C(Nc1nc(-c2ccccn2)cs1)c1ccc(F)c(S(=O)(=O)N2CCOCC2)c1` has an AC50 of 7.51 µM. `O=C(NNc1c(Cl)cc(Cl)cc1Cl)c1cccc([N+](=O)[O-])c1` gave an AC50 of 3.08 µM. `O=C(CN1CCCc2ccccc21)N/N=C/c1ccccc1O` was tested, and the AC50 was 15 µM. For `Cc1ccc(C[n+]2cccc(-c3ccccc3)c2)c(C)c1`, the AC50 was 5.1 µM. For `O=C(/C(N=Nc1cccc([N+](=O)[O-])c1)=C(/O)c1ccc(Br)cc1)C(F)(F)F`, the AC50 was 6.66 µM. Work on `CCCCNC1=CC(=O)C(=O)c2ccccc21` yielded an AC50 of 7.75 µM. Work on `CC1C/C(=C/c2ccncc2)C(=O)/C(=C/c2ccncc2)C1` (stereo not drawn) yielded an AC50 of 4.62 µM. Work on `COc1ccc(-c2csc(NC(=O)c3ccccc3NS(=O)(=O)c3ccc(F)c(F)c3)n2)cc1` yielded an AC50 of 3.52 µM. In the case of `Cc1nc2ccccn2c1C(=O)/C=C/c1cccc([N+](=O)[O-])c1`, the AC50 is reported as 7.93 µM. `Cc1cc(C)c2nc(NNC(=O)c3ccc(S(=O)(=O)N4CCc5ccccc5C4)cc3)sc2c1` gave an AC50 of 3.39 µM. Compound `CCCCS(=O)(=O)/C=C\C=C/S(=O)(=O)CCCC` has an AC50 of 5.48 µM. `CCCCCN=Cc1c(C)[nH]n(-c2nc3ccccc3s2)c1=O` showed an AC50 of 3.2 µM. `CC(C)(C)c1cc(CCC(=O)NNC(=S)NC(=O)c2ccccc2)cc(C(C)(C)C)c1O` showed an AC50 of 7.17 µM. In the case of `Cc1cc(C(=O)NC2CCCc3c2cnn3-c2ccc(C)c(C)c2)n(C)n1` (stereo not drawn), the AC50 is reported as 0.378 µM. For `O=C(C[C@@H]1C/C=C/CC[C@H](Cc2ccc(F)cc2)C(=O)OC[C@@H](Cc2ccccc2)NC1=O)N[C@H](CO)Cc1ccccc1`, the AC50 was 7.82 µM. Work on `COc1cc(NC(C)CCCN)c2ncccc2c1` (stereo not drawn) yielded an AC50 of 13.8 µM. In the case of `CCOc1cc(/C=C2\CCC/C(=C\c3cc(Cl)c(O)c(OCC)c3)C2=O)cc(Cl)c1O`, the AC50 is reported as 7.28 µM. With `N#CC(C#N)=NNc1ccc(-n2ccc(C(F)(F)F)n2)cc1` the AC50 was 7.8 µM. `Oc1[nH]c2ccccc2c1N=NC(=S)N1CCOCC1` was tested, and the AC50 was 3.98 µM. `CCOc1ccccc1NC(=O)c1nc(S(=O)(=O)Cc2cccc(C)c2)ncc1Cl` gave an AC50 of 7.91 µM. `Cc1ccc2c(c1)N(C)/C(=C/c1cccc[n+]1CCO)S2` was tested, and the AC50 was 3.18 µM. Work on `CCOC(=O)C1=C(c2ccc(OC)cc2)C(=O)c2ccccc2C1=O` yielded an AC50 of 3.83 µM. Work on `C#CCOCCOCCOCCNc1nc(N2CCN(C(=O)CCCCCCCCCCNC(=O)Cn3cc(C[C@@H](C)O)nn3)CC2)nc(N2CCN(C(=O)CCCCCCCCCCNC(=O)[C@@H]([C@H](C)CC)n3cc(CCCCCN)nn3)CC2)n1` yielded an AC50 of 7.83 µM. Work on `Oc1ccccc1/C=N/Nc1nc2ccccc2o1` yielded an AC50 of 4.62 µM. With `CCN1CCN(c2ccc(S(=O)(=O)N3CCCCC3)cc2NC(=O)c2ccc([N+](=O)[O-])o2)CC1` the AC50 was 8.1 µM. `C1=C(CCNc2ncnc3c2[nH]c2ccccc23)CCCC1` gave an AC50 of 0.489 µM. For `FC(F)(F)c1nnc2c(Sc3ccccc3)nc3ccc(Cl)cc3n12`, the AC50 was 11.1 µM. In the case of `CCOC(=O)c1c(C)[nH]c(C)c1C(=O)CSc1nc2ccccc2c(=O)n1-c1ccc(CC)cc1`, the AC50 is reported as 5.33 µM. `CCCCC(=O)N1C/C=C\C(c2ccc(OC)cc2)N(Cc2ccc(F)cc2)C(=O)[C@H]1Cc1ccccc1` (stereo partly drawn) was tested, and the AC50 was 7.74 µM. For `O=C(N/N=C\c1c(O)ccc2ccccc12)c1ccc(S(=O)(=O)N2CCCCC2)cc1`, the AC50 was 1.11 µM. With `C#CCOCCOCCOCCNc1nc(N2CCN(C(=O)CCCCCCCCCCNC(=O)[C@H]([C@@H](C)CC)n3cc(CCCCN=C(N)N)nn3)CC2)nc(N2CCN(C(=O)CCCCCCCCCCNC(=O)[C@H](CCCCN)n3cc(C)nn3)CC2)n1` the AC50 was 6.28 µM. With `O=S(=O)(Nc1cc(Sc2cccc3cccnc23)c(O)c2ccccc12)c1ccc(F)cc1` the AC50 was 3.9 µM. `CCOc1ccc(S(=O)(=O)N(C)c2ccc(OCC(=O)Nc3nc4ccccc4s3)cc2)cc1` showed an AC50 of 7.9 µM. `COc1cccc2sc(Nc3nc(-c4ccccn4)cs3)nc12` showed an AC50 of 3.75 µM. In the case of `CC(C)C[C@H]1CN=C(Nc2ccccc2)N1CC1CCC(C(C)(C)C)CC1` (stereo partly drawn), the AC50 is reported as 8.6 µM. With `CCn1c(-c2ccc(N(C)C)cc2)nc2ccccc21` the AC50 was 3.75 µM.
